Measurements reported in US9993493B2, “Composition for prevention, amelioration or treatment of metabolic syndrome” (HOUSE WELLNESS FOODS CORPORATION, priority 2010, dated 2018).

Experiments:
Assay type in all cases: in vivo, male KK mice
diet-induced obese mice [1] = assay: Test Example 1: glucosyl hesperidin and caffeine fed in low-calorie feed to diet-induced obese mice; details: vs control group, caffeine 0.025 mass %, glucosyl hesperidin 0.25 mass %, mixture 0.25+0.025 mass %; for weight of mesenteric (visceral) fat tissue: 2 weeks low-calorie feed, FIG. 3; for changes in body weight: before and after 2 weeks low-calorie feed, FIG. 1
Source text: In such a situation, the effect of the composition of the present invention comprising glucosyl hesperidin and caffeine was investigated. As the glucosyl hesperidin and caffeine, “Hayashibara Hesperidin S (trade name)” (distributor: Hayashibara Co., Ltd.) and “Chanomoto (trade name)” (purity of caffeine: 98.5%, made by Shiratori Pharmaceutical Co., Ltd.) were used, respectively.
Five-week-old male KK mice were fed with water and a powder feed for breeding (CE-2 (trade name), made by CLEA Japan, Inc.) for one week, and then fed with the high-calorie feed (4.70 kcal/g) in Table 1 shown below for 3 weeks for induction of obesity. The mice were divided into 4 groups (a control group, a caffeine administration group, a glucosyl hesperidin administration group, and a present invention administration group (caffeine+glucosyl hesperidin), 5 to 8 mice per group) and fed with the low-calorie feed (3.16 kcal/g) in Table 1 shown below or the low-calorie feed supplemented with the corresponding test sample for 2 weeks, in expectation of using body fat. The feeds given to the test groups are as follows. • (1) Control group; low-calorie feed • (2) Caffeine administration group; low-calorie feed+0.025 mass % of caffeine • (3) Glucosyl hesperidin administration group; low-calorie feed+0.25 mass % of glucosyl hesperidin • (4) Present invention (mixture of glucosyl hesperidin and caffeine (10:1)) administration group; low-calorie feed+(0.25 mass % of glucosyl hesperidin+0.025 mass % of caffeine)
During the test period (2 weeks from the start of low-calorie feeding), body weight and feed intake were periodically measured. After the end of the test, the mice were euthanized, and mesenteric (visceral) fat tissue was removed and weighed.
(§1) The changes in body weight before and after the test period is shown in FIG. 1, the feed intake during the first 10 days of the test period is shown in FIG. 2, and the weight of mesenteric fat tissue per 100 g of body weight is shown in FIG. 3. The results are shown as Mean±SD of each group. The ** and * in the figures indicate a significant difference with a risk less than 1% and a risk less than 5% from the control, respectively.

diet-induced obese mice [2] = assay: Test Example 2: glucosyl hesperidin and caffeine mixtures (10:1, 20:1, 40:1) fed in low-calorie feed to diet-induced obese mice; details: vs control group, caffeine 0.0125 mass %, glucosyl hesperidin 0.25 mass %; for weight of subcutaneous fat tissue / weight of mesenteric (visceral) fat tissue: 2 weeks low-calorie feed; for weight of subcutaneous fat tissue: FIG. 6; for weight of mesenteric (visceral) fat tissue: FIG. 7; for changes in body weight: before and after 2 weeks low-calorie feed, FIG. 4
Source text: Under the same conditions as in Test Example 1, the effect of the composition of the present invention comprising glucosyl hesperidin and caffeine was investigated. The glucosyl hesperidin and caffeine used here were the same as in Test Example 1.
Five-week-old male KK mice were fed with water and a powder feed for breeding (CE-2 (trade name), made by CLEA Japan, Inc.) for one week, and then fed with the high-calorie feed (4.70 kcal/g) in Table 1 for 3 weeks for induction of obesity. The mice were divided into 6 groups (a control group, a caffeine administration group, a glucosyl hesperidin administration group, and mixture of caffeine and glucosyl hesperidin (present invention) administration groups, 6 to 7 mice per group) and fed with the low-calorie feed (3.16 kcal/g) in Table 1 or the low-calorie feed supplemented with the corresponding test sample for 2 weeks, in expectation of using body fat. The feeds given to the test groups are as follows. • (1) Control group; low-calorie feed • (2) Caffeine administration group; low-calorie feed+0.0125 mass % of caffeine • (3) Glucosyl hesperidin administration group; low-calorie feed+0.25 mass % of glucosyl hesperidin • (4) Mixture of glucosyl hesperidin and caffeine (10:1) administration group; low-calorie feed+(0.25 mass % of glucosyl hesperidin+0.025 mass % of caffeine) • (5) Mixture of glucosyl hesperidin and caffeine (20:1) administration group; low-calorie feed+(0.25 mass % of glucosyl hesperidin+0.0125 mass % of caffeine) • (6) Mixture of glucosyl hesperidin and caffeine (40:1) administration group; low-calorie feed+(0.25 mass % of glucosyl hesperidin+0.00625 mass % of caffeine)
During the test period (2 weeks from the start of low-calorie feeding), body weight and feed intake were periodically measured. After the end of the test, the mice were euthanized, and subcutaneous fat tissue and mesenteric (visceral) fat tissue were removed and separately weighed.
as §1, with “4,” for “1,”, “5, the weight of subcutaneous fat tissue per 100 g of body weight is shown in FIG. 6,” for “2,”, “7.” for “3.”, “$, **,” for “**”, “10%, a risk less than 1%,” for “1%”

diet-induced obese mice [3] = assay: Test Example 3: Oligonol and caffeine fed in low-calorie feed to diet-induced obese mice; details: vs control group, caffeine 0.025 mass %, Oligonol 0.1 mass %, mixture 0.1+0.025 mass %
Source text: As the polyphenol containing 15 mass % or more of proanthocyanidin having a polymerization degree of 1 to 3 and caffeine, “Oligonol (trade name)” (distributor: […] Five-week-old male KK mice were fed with water and a powder feed for breeding (CE-2 (trade name), made by CLEA Japan, Inc.) for one week, and then fed with the high-calorie feed (4.70 kcal/g) in Table 1 for 3 weeks for induction of obesity. […] The feeds given to the test groups are as follows. • (1) Control group; low-calorie feed • (2) Caffeine administration group; low-calorie feed+0.025 mass % of caffeine • (3) Oligonol administration group; low-calorie feed+0.1 mass % of Oligonol • (4) Present invention (mixture of Oligonol and caffeine (4:1)) administration group; low-calorie feed+(0.1 mass % of Oligonol+0.025 mass % of caffeine) During the test period (2 weeks from the start of low-calorie feeding), body weight and feed intake were periodically measured. After the end of the test, the mice were euthanized, and subcutaneous fat tissue, epididymal fat tissue, and mesenteric (visceral) fat tissue were removed and separately weighed. Also, at the start of the test period (the start of low-calorie feeding) and the end of the test period, plasma triglyceride level was measured. The changes in body weight before and after the test period is shown in FIG. 8, the feed intake during the first 10 days of the test period is shown in FIG. 9, the total weight of subcutaneous, epididymal, and mesenteric fat tissues per 100 g of body weight is shown in FIG. 10, and the changes in plasma triglyceride level before and after the test period is shown in FIG. 11. The results are shown as Mean±SD of each group.

Compound | weight of mesenteric (visceral) fat tissue (diet-induced obese mice [1]) | changes in body weight (diet-induced obese mice [1]) | weight of subcutaneous fat tissue (diet-induced obese mice [2]) | weight of mesenteric (visceral) fat tissue (diet-induced obese mice [2]) | changes in body weight (diet-induced obese mice [2]) | total weight of fat tissues (subcutaneous, epididymal, and mesenteric) (diet-induced obese mice [3]; 2 weeks low-calorie feed, FIG. 10) | plasma triglyceride level measured on the 14th day (diet-induced obese mice [3]; 14th day of low-calorie feed, FIG. 11) | changes in body weight (diet-induced obese mice [3]; before and after 2 weeks low-calorie feed, FIG. 8)
Cn1c(=O)c2c(ncn2C)n(C)c1=O [caffeine] | did not show any significant difference | significantly lower values | did not show any significant difference | did not show any significant difference | values equivalent to those of the control group | did not show any significant difference | did not show any significant difference | lower values
glucosyl hesperidin | did not show any significant difference | equivalent values | did not show any significant difference | did not show any significant difference | values equivalent to those of the control group |  |  | 
